In ChEMBL document CHEMBL4765282, “Design, synthesis and biological evaluation of 1H-pyrazolo [3,4-d]pyrimidine derivatives as PAK1 inhibitors that trigger apoptosis, ER stress and anti-migration effect in MDA-MB-231 cells” (Eur J Med Chem, 2020):
The source made the active and inactive calls. No cut-off for these calls is given here.

Legend:
[1] = target: T1, Serine/threonine-protein kinase PAK 1 (Homo sapiens, UniProt Q13153); assay: Inhibition of PAK1 in human MDA-MB-231 cells assessed as reduction in ERK1/2 phosphorylation at Thr202/Tyr204 residues at 10 to 40 uM measured after 24 hrs by Western blot analysis; assay type: cell-based; settings: dose 10-40 µM
MDA-MB-231 [2] = assay: Down regulation of JNK expression in human MDA-MB-231 cells at 20 uM measured after 24 hrs by immunofluorescence assay; assay type: functional, cell-based
[3] = target: T1, Serine/threonine-protein kinase PAK 1; assay: Inhibition of PAK1 phosphorylation at Thr212 residues in human MDA-MB-231 cells at 10 to 40 uM measured after 24 hrs by Western blot analysis; assay type: cell-based; settings: dose 10-40 µM
MDA-MB-231 [4] = assay: Induction of apoptosis in human MDA-MB-231 cells assessed as viable cells at 10 uM measured after 24 hrs by Annexin V-FITC/propidium iodide staining based flow cytometry (reference value: 98.46%); assay type: functional; settings: read-out: Activity
[5] = Effect on ASNS gene expression in human MDA-MB-231 cells by Trizol reagent based RNA sequencing analysis relative to control; assay type: functional
[6] = target: T1, Serine/threonine-protein kinase PAK 1; assay: Inhibition of PAK1 (unknown origin) […] measured after 40 mins by ADP-glo kinase assay
MDA-MB-231 [7] = assay: Induction of apoptosis in human MDA-MB-231 cells assessed as necrotic cells at 20 uM measured after 24 hrs by Annexin V-FITC/propidium iodide staining based flow cytometry (reference value: 0.16%); assay type: functional
Homo sapiens = species on record: Homo sapiens; assay: Selectivity ratio of IC50 for inhibition of PAK3 (unknown origin) to IC50 for inhibition of PAK1 (unknown origin)
MDA-MB-231 [8] = assay: Induction of apoptosis in human MDA-MB-231 cells assessed as early apoptotic cells at 20 uM measured after 24 hrs by Annexin V-FITC/propidium iodide staining based flow cytometry (reference value: 0.81%); assay type: functional
[9] = Effect on TCP10L gene expression in human MDA-MB-231 cells by Trizol reagent based RNA sequencing analysis relative to control; assay type: functional
[10] = target: T1, Serine/threonine-protein kinase PAK 1; assay: Inhibition of PAK1 in human MDA-MB-231 cells assessed as reduction in ERK expression at 10 to 40 uM measured after 24 hrs by Western blot analysis; assay type: cell-based; settings: dose 10-40 µM
[11] = Effect on CXCL2 gene expression in human MDA-MB-231 cells by Trizol reagent based RNA sequencing analysis relative to control; assay type: functional
MDA-MB-231 [12] = assay: Inhibition of PI3K/AKT/mTOR signaling in human MDA-MB-231 cells assessed as reduction in AKT phosphorylation at 10 to 40 uM after 24 hrs by Western blot analysis; assay type: cell-based; settings: dose 10-40 µM
[13] = Effect on BEX2 gene expression in human MDA-MB-231 cells by Trizol reagent based RNA sequencing analysis relative to control; assay type: functional
[14] = Effect on GDF15 gene expression in human MDA-MB-231 cells by Trizol reagent based RNA sequencing analysis relative to control; assay type: functional
MDA-MB-231 [15] = assay: Inhibition of human MDA-MB-231 cell migration measured after 24 hrs by phase contrast microscopy based transwell assay; assay type: functional
[16] = Effect on STC2 gene expression in human MDA-MB-231 cells by Trizol reagent based RNA sequencing analysis relative to control; assay type: functional
MDA-MB-231 [17] = assay: Inhibition of AKT phosphorylation at Ser473 residue in human MDA-MB-231 cells at 20 uM measured after 24 hrs by immunofluorescence analysis; assay type: cell-based
[18] = target: Mitogen-activated protein kinase 8/9 (Homo sapiens) (UniProt P45983+P45984); assay: Inhibition of JNK1/2 in human MDA-MB-231 cells assessed as reduction in c-JUN phosphorylation at Ser63 residues at 10 to 40 uM after 24 hrs by Western blot analysis; assay type: cell-based; settings: dose 10-40 µM
MDA-MB-231 [19] = assay: Upregulation of phosphorylated PERK Thr980 expression in human MDA-MB-231 cells at 10 to 40 uM measured after 24 hrs by Western blot analysis; assay type: functional, cell-based; settings: dose 10-40 µM
[20] = Effect on KLF15 gene expression in human MDA-MB-231 cells by Trizol reagent based RNA sequencing analysis relative to control; assay type: functional
[21] = Effect on MIA2 gene expression in human MDA-MB-231 cells by Trizol reagent based RNA sequencing analysis relative to control; assay type: functional
[22] = Effect on G0S2 gene expression in human MDA-MB-231 cells by Trizol reagent based RNA sequencing analysis relative to control; assay type: functional
[23] = Effect on KLHDC7B gene expression in human MDA-MB-231 cells by Trizol reagent based RNA sequencing analysis relative to control; assay type: functional
[24] = target: Serine/threonine-protein kinase PAK 2 (Homo sapiens, UniProt Q13177); assay: Inhibition of PAK2 (unknown origin) […] measured after 40 mins by ADP-glo kinase assay
[25] = Effect on HERPUD1 gene expression in human MDA-MB-231 cells by Trizol reagent based RNA sequencing analysis relative to control; assay type: functional
MDA-MB-231 [26] = assay: Upregulation of XBP-1s expression in human MDA-MB-231 cells at 10 to 40 uM measured after 24 hrs by Western blot analysis; assay type: functional, cell-based; settings: dose 10-40 µM
[27] = Effect on CHAC1 gene expression in human MDA-MB-231 cells by Trizol reagent based RNA sequencing analysis relative to control; assay type: functional
[28] = target: T1, Serine/threonine-protein kinase PAK 1; assay: Inhibition of PAK1 in human MDA-MB-231 cells assessed as reduction in MEK1/2 phosphorylation at ser217/221 residues at 10 to 40 uM measured after 24 hrs by Western blot analysis; assay type: cell-based; settings: dose 10-40 µM
[29] = Effect on TRIB3 gene expression in human MDA-MB-231 cells by Trizol reagent based RNA sequencing analysis relative to control; assay type: functional
MDA-MB-231 [30] = assay: Induction of apoptosis in human MDA-MB-231 cells assessed as increase in caspase-3 cleavage at 10 to 40 uM measured after 24 hrs by Western blot analysis; assay type: functional, cell-based; settings: dose 10-40 µM
[31] = Effect on CDHR4 gene expression in human MDA-MB-231 cells by Trizol reagent based RNA sequencing analysis relative to control; assay type: functional; settings: dose 10-40 µM; time 24 hrs
[32] = target: Serine/threonine-protein kinase PAK 3 (Homo sapiens, UniProt O75914); assay: Inhibition of PAK3 (unknown origin) […] measured after 40 mins by ADP-glo kinase assay
[33] = Effect on CASC10 gene expression in human MDA-MB-231 cells by Trizol reagent based RNA sequencing analysis relative to control; assay type: functional
MDA-MB-231 [34] = assay: Upregulation of CHOP expression in human MDA-MB-231 cells at 10 to 40 uM measured after 24 hrs by Western blot analysis; assay type: functional, cell-based; settings: dose 10-40 µM
MDA-MB-231 [35] = assay: Up regulation of MMP-2 expression in human MDA-MB-231 cells at 10 to 40 uM measured after 24 hrs by Western blot analysis; assay type: functional, cell-based; settings: dose 10-40 µM
MDA-MB-231 [36] = assay: Induction of apoptosis in human MDA-MB-231 cells assessed as late apoptotic cells at 10 uM measured after 24 hrs by Annexin V-FITC/propidium iodide staining based flow cytometry (reference value: 0.57%); assay type: functional
[37] = Effect on GPT2 gene expression in human MDA-MB-231 cells by Trizol reagent based RNA sequencing analysis relative to control; assay type: functional

T1 sequence (Q13153 whole entry): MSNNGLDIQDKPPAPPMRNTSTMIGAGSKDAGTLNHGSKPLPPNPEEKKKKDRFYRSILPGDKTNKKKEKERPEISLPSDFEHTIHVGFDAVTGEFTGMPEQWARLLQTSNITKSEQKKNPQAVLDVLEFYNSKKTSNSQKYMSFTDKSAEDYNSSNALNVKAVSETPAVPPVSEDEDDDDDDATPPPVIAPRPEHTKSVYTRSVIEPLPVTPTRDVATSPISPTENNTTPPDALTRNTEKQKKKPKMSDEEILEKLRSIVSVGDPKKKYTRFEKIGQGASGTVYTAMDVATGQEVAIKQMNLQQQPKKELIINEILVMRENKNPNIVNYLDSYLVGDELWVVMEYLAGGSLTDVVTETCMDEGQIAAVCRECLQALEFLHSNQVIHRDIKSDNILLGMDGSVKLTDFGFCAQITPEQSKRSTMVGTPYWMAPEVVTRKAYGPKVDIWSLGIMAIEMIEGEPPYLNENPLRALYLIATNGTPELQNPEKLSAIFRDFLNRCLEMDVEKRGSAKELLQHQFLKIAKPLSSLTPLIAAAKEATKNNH
Chain of Serine/threonine-protein kinase PAK 2 (Q13177 whole entry): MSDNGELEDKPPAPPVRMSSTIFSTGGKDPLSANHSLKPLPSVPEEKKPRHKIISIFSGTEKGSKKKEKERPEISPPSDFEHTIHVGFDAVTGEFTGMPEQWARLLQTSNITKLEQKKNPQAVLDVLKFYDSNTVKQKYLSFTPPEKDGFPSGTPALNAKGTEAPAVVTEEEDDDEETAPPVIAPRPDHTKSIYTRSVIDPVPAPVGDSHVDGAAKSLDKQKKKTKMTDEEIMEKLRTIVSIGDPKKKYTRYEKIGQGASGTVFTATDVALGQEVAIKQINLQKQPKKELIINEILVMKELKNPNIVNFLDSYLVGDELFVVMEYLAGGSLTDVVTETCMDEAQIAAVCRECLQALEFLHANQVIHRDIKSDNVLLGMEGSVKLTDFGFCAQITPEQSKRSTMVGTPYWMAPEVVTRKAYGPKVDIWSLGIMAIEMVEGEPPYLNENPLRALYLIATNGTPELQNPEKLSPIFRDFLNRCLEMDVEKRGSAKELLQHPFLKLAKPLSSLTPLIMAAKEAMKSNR
Chain of Mitogen-activated protein kinase 8/9 (Homo sapiens) (P45983 whole entry, looked up): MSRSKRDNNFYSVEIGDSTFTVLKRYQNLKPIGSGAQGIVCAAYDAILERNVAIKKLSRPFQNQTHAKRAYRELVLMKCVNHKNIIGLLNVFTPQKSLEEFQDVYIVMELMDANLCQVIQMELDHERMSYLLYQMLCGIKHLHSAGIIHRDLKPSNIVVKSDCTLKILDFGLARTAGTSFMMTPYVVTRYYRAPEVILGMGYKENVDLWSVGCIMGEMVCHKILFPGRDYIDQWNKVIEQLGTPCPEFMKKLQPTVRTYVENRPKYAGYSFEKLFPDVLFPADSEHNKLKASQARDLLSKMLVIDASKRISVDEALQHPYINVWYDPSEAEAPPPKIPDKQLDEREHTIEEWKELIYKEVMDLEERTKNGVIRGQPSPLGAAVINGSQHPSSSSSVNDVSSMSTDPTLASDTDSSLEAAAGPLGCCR
Chain of Mitogen-activated protein kinase 8/9 (Homo sapiens) (P45984 whole entry, looked up): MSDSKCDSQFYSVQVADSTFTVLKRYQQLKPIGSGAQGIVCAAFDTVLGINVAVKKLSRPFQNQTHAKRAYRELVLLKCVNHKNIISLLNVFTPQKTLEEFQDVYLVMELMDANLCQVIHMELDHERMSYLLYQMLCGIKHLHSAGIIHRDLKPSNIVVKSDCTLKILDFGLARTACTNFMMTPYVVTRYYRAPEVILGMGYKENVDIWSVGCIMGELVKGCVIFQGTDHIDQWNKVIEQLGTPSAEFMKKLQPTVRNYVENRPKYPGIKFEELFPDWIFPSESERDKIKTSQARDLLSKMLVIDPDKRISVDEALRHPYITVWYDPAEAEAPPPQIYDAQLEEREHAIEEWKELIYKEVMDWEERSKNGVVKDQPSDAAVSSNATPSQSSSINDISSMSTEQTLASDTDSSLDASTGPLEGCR
Chain of Serine/threonine-protein kinase PAK 3 (O75914 whole entry): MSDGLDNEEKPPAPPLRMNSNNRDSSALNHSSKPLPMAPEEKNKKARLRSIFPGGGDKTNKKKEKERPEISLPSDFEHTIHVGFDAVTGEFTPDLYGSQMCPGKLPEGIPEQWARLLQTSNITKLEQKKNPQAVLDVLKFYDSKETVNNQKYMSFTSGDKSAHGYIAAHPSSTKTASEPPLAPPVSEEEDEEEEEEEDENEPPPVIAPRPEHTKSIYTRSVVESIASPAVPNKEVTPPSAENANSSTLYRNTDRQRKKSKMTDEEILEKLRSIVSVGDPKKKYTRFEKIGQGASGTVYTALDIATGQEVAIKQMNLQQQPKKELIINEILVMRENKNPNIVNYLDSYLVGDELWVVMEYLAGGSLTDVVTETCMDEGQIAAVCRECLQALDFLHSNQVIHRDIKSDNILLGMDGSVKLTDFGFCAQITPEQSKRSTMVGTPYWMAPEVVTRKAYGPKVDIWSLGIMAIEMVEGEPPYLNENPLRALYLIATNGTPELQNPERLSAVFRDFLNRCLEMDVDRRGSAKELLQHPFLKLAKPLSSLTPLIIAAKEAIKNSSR

Structure (SMILES): O=C(Nc1cc(C(F)(F)F)cc(C(F)(F)F)c1)NC1CCN(c2ncnc3[nH]ncc23)CC1
- inhibition [1]: Active
- Activity (MDA-MB-231 [2]): inactive
- inhibition [3]: Active
- viability at 10 µM (MDA-MB-231 [4]): 88%
- fold change (FC) [5]: >2
- IC50 [6]: 170 nM
- Activity (MDA-MB-231 [7]): 0.59%
- Ratio IC50 (Homo sapiens): 5
- Activity (MDA-MB-231 [8]): 15.2%
- fold change (FC) [9]: >2
- inhibition [10]: Active
- fold change (FC) [11]: >2
- inhibition (MDA-MB-231 [12]): Active
- fold change (FC) [13]: >2
- fold change (FC) [14]: >2
- inhibition (MDA-MB-231 [15]): Active
- fold change (FC) [16]: >2
- inhibition (MDA-MB-231 [17]): Active
- inhibition [18]: Active
- Activity (MDA-MB-231 [19]): Active
- fold change (FC) [20]: >2
- fold change (FC) [21]: >2
- fold change (FC) [22]: >2
- fold change (FC) [23]: >2
- IC50 [24]: 1040 nM
- fold change (FC) [25]: >2
- Activity (MDA-MB-231 [26]): Active
- fold change (FC) [27]: >2
- inhibition [28]: Active
- fold change (FC) [29]: >2
- Activity (MDA-MB-231 [30]): Active
- fold change (FC) [31]: >2
- IC50 [32]: 1370 nM
- fold change (FC) [33]: >2
- Activity (MDA-MB-231 [34]): Active
- Activity (MDA-MB-231 [35]): Active
- Activity (MDA-MB-231 [36]): 3.22%
- fold change (FC) [37]: >2
